Source: patent publication US7354915B2 (Wyeth, priority 2003, dated 2008)
pEC50, pIC50: −log10 of the molar value. Where “and” joins values, the source holds several entries; their conditions need not be identical. Equal entries are not always repeated.

How the values were obtained:
[1] = tested on: rat uterine decidualization; assay: Rat decidualization assay; format: in vivo; settings: ovariectomized female Sprague-Dawley rats; for Estimated average EC50 (decidual response) / EC50 for uterine weight (decidual response): s.c.; for Estimated average EC50 (decidual response): average of dose-response curves; for EC50 for uterine weight (decidual response): once daily for seven days, individual studies (Exp)
Experimental: B. Rat decidualization assay • 1. […] Methods: • a. […] The animals were treated once daily for seven days. […] Dosing • Doses were prepared based upon mg/kg mean group body weight. In all studies, a control group receiving vehicle was included. […] The contralateral horn was not scratched and served as an unstimulated control. Approximately 24 hours following the final treatment, rats were sacrificed by CO2 asphyxiation and body weight measured. Uteri were removed and trimmed of fat. Decidualized (D-horn) and control (C-horn) uterine horns were weighed separately. • 3.
Body weight: Mean total animal body weight (default-kg)
Decidual response: [(D−C)/C]×100%

T47D cells = assay: T47D cell proliferation assay (BrdU incorporation); format: cell-based
Experimental: A. T47D cell proliferation assay • 1. Objective: • Determination of progestational and antiprogestational potency was performed by using a cell proliferation assay in T47D cells. A compound's effect on DAN synthesis in T47D cells was measured. • 2. Methods: • a. Reagents: • Growth medium: DMEM:F12 (1:1) (GIBCO, BRL) supplemented with 10% (v/v) fetal bovine serum (not heat-inactivated), 100 U/mL penicillin, […] streptomycin, and 2 mM GlutaMax (GIBCO, BRL). • Treatment medium: Minimum Essential Medium (MEM) (#51200-038GIBCO, BRL) phenol red-free supplemented with 0.5% charcoal stripped fetal bovine serum, 100 U/mL penicillin, […] streptomycin, and 2 mM GlutaMax (GIBCO, BRL). • b. Cell Culture: • Stock T47 D cells were maintained in growth medium. For BrdU incorporation assay, cells were plated in 96-well plates (Falcon, Becton Dickinson Labware) at 10,000 cells/well in growth medium. […] Cell Proliferation Assay: • At the end of BrdU labeling, the medium was removed and BrdU incorporation was measured using a cell proliferation ELISA kit (#RPN 250, Amersham Life Science) according to manufacturer's instructions. […] Then 25 μL of 1 M sulfuric acid was added to each well to stop color reaction and optical density read in a plate reader at 450 nm within 5 minutes. • 3. […] EC50 or IC50 values were calculated from the retransformed values. […]

Structure (SMILES)	Estimated average EC50 (decidual response) [1]	EC50 for uterine weight (decidual response) [1]	further results
CC(=O)O[C@]1(C(C)=O)CC[C@H]2[C@@H]3C[C@H](C)C4=CC(=O)CC[C@]4(C)[C@H]3CC[C@@]21C [MPA, medroxyprogesterone acetate]	–	0.42 mg/kg, s.c. and 0.39 mg/kg, s.c. (2×)	–
CC(=O)[C@H]1CC[C@H]2[C@@H]3CCC4=CC(=O)CC[C@]4(C)[C@H]3CC[C@]12C [Progesterone]	–	5.50 mg/kg, s.c.	–
CC#C[C@]1(O)CC[C@H]2[C@@H]3CCC4=CC(=O)CCC4=C3[C@@H](c3ccc(N(C)C)cc3)C[C@@]21C [RU486]	–	–	pIC50 (T47D cells; read-out: IC50 (half-maximal decrease in trimegestone induced BrdU incorporation), antagonist mode in the presence of 0.03 nM trimegestone, individual studies (Exp)): 10.80 and 10.74; IC50 for uterine weight (decrease in EC50 progesterone induced decidual response) ([1]; p.o., with progesterone 5.6 mg/kg, individual studies (Exp.)): 0.21 mg/kg, p.o. and 0.14 mg/kg, p.o.
C[C@H](O)C(=O)[C@@]1(C)CC[C@H]2[C@@H]3CCC4=CC(=O)CCC4=C3CC[C@@]21C [Trimegestone]	–	–	pEC50 (T47D cells; agonist mode, individual studies (Exp), read-out: EC50 (half-maximal increase in BrdU incorporation)): 10.77 and 10.85 and 10.72

Second part, led by results:

Estimated average EC50 (decidual response) [1]	Structure (SMILES)	EC50 for uterine weight (decidual response) [1]	further results
0.10 mg/kg, s.c.	C#C[C@]1(O)CC[C@H]2[C@@H]3CCC4=CC(=O)CC[C@@H]4[C@H]3C(=C)C[C@@]21CC [3-Ketodesogestrel]	0.10 mg/kg, s.c. and 0.06 mg/kg, s.c. and 0.11 mg/kg, s.c.	–
0.10 mg/kg, s.c.	C#C[C@]1(O)CC[C@H]2[C@@H]3CCC4=CC(=O)CC[C@@H]4[C@H]3CC[C@@]21CC [Levonorgestrel]	0.08 mg/kg, s.c. and 0.12 mg/kg, s.c. and 0.09 mg/kg, s.c. (2×)	–
